Reference: US12459974B2, “Bicyclic peptide ligands specific for Nectin-4” (priority 2018, dated 2025)
*1 amine or outer side, *2 acyl side, *3 side chain or, on linkers, in order; H or OH if unused. Where a SMILES comes first, the peptide text is derived from it. Bridges are numbered along the chain shown (N, C = ends). [ ]: non-standard residue; d: D form. TATA = O=C(CC[*:1])N1CN(C(=O)CC[*:2])CN(C(=O)CC[*:3])C1; Pip = O=C(O)[C@@H]1CCCCN1

Molecular target: T1, human Nectin-4 (Homo sapiens, UniProt Q96NY8)
T1 sequence (Q96NY8 32-510): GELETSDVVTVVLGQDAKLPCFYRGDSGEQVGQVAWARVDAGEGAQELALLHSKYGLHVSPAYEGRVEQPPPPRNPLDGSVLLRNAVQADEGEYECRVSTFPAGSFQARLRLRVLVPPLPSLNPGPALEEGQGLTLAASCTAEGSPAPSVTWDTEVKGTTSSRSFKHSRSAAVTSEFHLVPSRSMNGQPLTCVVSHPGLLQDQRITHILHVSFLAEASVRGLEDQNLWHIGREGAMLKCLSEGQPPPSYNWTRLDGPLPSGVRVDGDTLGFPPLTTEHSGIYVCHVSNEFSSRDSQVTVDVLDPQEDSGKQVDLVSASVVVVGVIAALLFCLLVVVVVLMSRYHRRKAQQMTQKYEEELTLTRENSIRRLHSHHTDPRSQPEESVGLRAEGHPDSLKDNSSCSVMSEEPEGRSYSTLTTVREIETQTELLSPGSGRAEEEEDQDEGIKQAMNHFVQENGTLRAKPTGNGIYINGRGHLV
Assay: Nectin-4 competition binding assay (fluorescence polarisation)
Details: competition with fluorescent peptide SEQ ID NO: 217; read-out: Ki
In short: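 Serially diluted (1 in 2) peptides, max 5% DMSO, were mixed with human Nectin-4 and a fluorescent tracer peptide; FP read as in the direct binding assay. Ki from fitting mP values to a cubic competition equation using tracer concentration, tracer Kd and Nectin-4 concentration.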

Row | SMILES | Ki
1 | CC[C@H](C)[C@@H]1NC(=O)[C@@H]2CCCN2C(=O)[C@H](Cc2ccc3ccccc3c2)NC(=O)[C@H](CO)NC(=O)[C@H](Cc2c[nH]c3ccccc23)NC(=O)[C@H](CC(N)=O)NC(=O)[C@H](CCCCN)NC(=O)[C@H](CCSC)NC(=O)[C@@H]2CSCCC(=O)N3CN(CN(C3)C(=O)CCSC[C@H](NC(C)=O)C(=O)N3CCC[C@H]3C(=O)N[C@@H](Cc3ccccc3)C(=O)NCC(=O)N2)C(=O)CCSC[C@@H](C(N)=O)NC(=O)[C@H](Cc2c[nH]c3ccccc23)NC1=O [BCY7592, Ac-(SEQ ID NO: 87)] | 37.4 nM
2 | CC[C@H](C)[C@@H]1NC(=O)[C@@H]2CCCCN2C(=O)[C@H](Cc2c[nH]c3ccccc23)NC(=O)[C@H](CO)NC(=O)[C@H](Cc2c[nH]c3ccccc23)NC(=O)[C@H](CC(N)=O)NC(=O)[C@H](CCCCN)NC(=O)[C@H](CCSC)NC(=O)[C@@H]2CSCCC(=O)N3CN(CN(C3)C(=O)CCSC[C@H](NC(C)=O)C(=O)N3CCC[C@H]3C(=O)N[C@@H](Cc3ccccc3)C(=O)NCC(=O)N2)C(=O)CCSC[C@@H](C(N)=O)NC(=O)[C@H](Cc2c[nH]c3ccccc23)NC1=O [BCY7595, Ac-(SEQ ID NO: 90)] (Ac-CPFGCMKNWSW[Pip]IWC-NH2; linker 1-5-15 via TATA) | 219 nM
3 | CC[C@H](C)[C@@H]1NC(=O)[C@@H]2CCCN2C(=O)[C@H](Cc2c[nH]c3ccccc23)NC(=O)[C@H](CO)NC(=O)[C@H](Cc2c[nH]c3ccccc23)NC(=O)[C@H](CC(N)=O)NC(=O)[C@H](CCCCN)NC(=O)[C@H](CCSC)NC(=O)[C@@H]2CSCCC(=O)N3CN(CN(C3)C(=O)CCSC[C@H](NC(C)=O)C(=O)N3CCC[C@H]3C(=O)N[C@@H](Cc3ccccc3)C(=O)NCC(=O)N2)C(=O)CCSC[C@@H](C(N)=O)NC(=O)[C@H](Cc2ccccc2)NC1=O [BCY7596, Ac-(SEQ ID NO: 91)] (Ac-CPFGCMKNWSWPIFC-NH2; linker 1-5-15 via TATA) | 353 nM
4 | CC[C@H](C)[C@@H]1NC(=O)[C@@H]2CCCN2C(=O)[C@H](Cc2c[nH]c3ccccc23)NC(=O)[C@H](CO)NC(=O)[C@H](Cc2c[nH]c3ccccc23)NC(=O)[C@H](CC(N)=O)NC(=O)[C@H](CCCCN)NC(=O)[C@H](CCSC)NC(=O)[C@@H]2CSCCC(=O)N3CN(CN(C3)C(=O)CCSC[C@H](NC(C)=O)C(=O)N3CCC[C@H]3C(=O)N[C@@H](Cc3ccccc3)C(=O)NCC(=O)N2)C(=O)CCSC[C@@H](C(N)=O)NC(=O)[C@H](Cc2ccc(O)cc2)NC1=O [BCY7597, Ac-(SEQ ID NO: 92)] (Ac-CPFGCMKNWSWPIYC-NH2; linker 1-5-15 via TATA; C-terminus assumed) | 169 nM
5 | CC[C@H](C)[C@@H]1NC(=O)[C@@H]2CCCN2C(=O)[C@H](Cc2c[nH]c3ccccc23)NC(=O)[C@H](CO)NC(=O)[C@H](Cc2c[nH]c3ccccc23)NC(=O)[C@H](CC(N)=O)NC(=O)[C@H](CCCCN)NC(=O)[C@H](CCSC)NC(=O)[C@@H]2CSCCC(=O)N3CN(CN(C3)C(=O)CCSC[C@H](NC(=O)[C@@H](CC(=O)O)NC(C)=O)C(=O)N3CCC[C@H]3C(=O)N[C@@H](Cc3ccccc3)C(=O)NCC(=O)N2)C(=O)CCSC[C@@H](C(N)=O)NC(=O)[C@H](Cc2c[nH]c3ccccc23)NC1=O [BCY7606, Ac-[dD]-(SEQ ID NO: 1)] (Ac-[dD]CPFGCMKNWSWPIWC-NH2; linker 2-6-16 via TATA) | 34 nM
6 | CC[C@H](C)[C@@H]1NC(=O)[C@@H]2CCCN2C(=O)[C@H](Cc2c[nH]c3ccccc23)NC(=O)[C@H](CO)NC(=O)[C@H](Cc2c[nH]c3ccccc23)NC(=O)[C@H](CC(N)=O)NC(=O)[C@H](CCCCN)NC(=O)[C@H](CCSC)NC(=O)[C@@H]2CSCCC(=O)N3CN(CN(C3)C(=O)CCSC[C@H](NC(C)=O)C(=O)NCC(=O)N[C@@H](Cc3ccccc3)C(=O)NCC(=O)N2)C(=O)CCSC[C@@H](C(N)=O)NC(=O)[C@H](Cc2c[nH]c3ccccc23)NC1=O [BCY7607, Ac-(SEQ ID NO: 94)] (Ac-CGFGCMKNWSWPIWC-NH2; linker 1-5-15 via TATA) | 77 nM
7 | CC[C@H](C)[C@@H]1NC(=O)[C@@H]2CCCN2C(=O)[C@H](Cc2c[nH]c3ccccc23)NC(=O)[C@H](CO)NC(=O)[C@H](Cc2c[nH]c3ccccc23)NC(=O)[C@H](CC(N)=O)NC(=O)[C@@H]2CCCN2C(=O)[C@H](CCSC)NC(=O)[C@@H]2CSCCC(=O)N3CN(CN(C3)C(=O)CCSC[C@H](NC(C)=O)C(=O)N3CCC[C@H]3C(=O)N[C@@H](Cc3ccccc3)C(=O)NCC(=O)N2)C(=O)CCSC[C@@H](C(N)=O)NC(=O)[C@H](Cc2c[nH]c3ccccc23)NC1=O [BCY7614, Ac-(SEQ ID NO: 99)] (Ac-CPFGCMPNWSWPIWC-NH2; linker 1-5-15 via TATA; C-terminus assumed) | 21 nM
8 | CC[C@H](C)[C@@H]1NC(=O)[C@H](CCCNC(=N)N)NC(=O)[C@H](CC(N)=O)NC(=O)[C@@H]2CSCCC(=O)N3CN(CN(C3)C(=O)CCSC[C@H](NC(=O)[C@H](Cc3c[nH]c4ccccc34)NC(=O)[C@H](CCCCN)NC(=O)[C@H](C)NC(C)=O)C(=O)N[C@@H](C)C(=O)N3CCC[C@H]3C(=O)N[C@@H](CC(C)C)C(=O)N[C@@H](CO)C(=O)N[C@@H](CC(=O)O)C(=O)N[C@@H](Cc3ccc(O)cc3)C(=O)N[C@@H](Cc3c[nH]c4ccccc34)C(=O)N2)C(=O)CCSC[C@@H](C(N)=O)NC1=O [BCY7622, Ac-AKW-(SEQ ID NO: 34)] (Ac-AKWCAPLSDYWCNRIC-NH2; linker 4-12-16 via TATA; C-terminus assumed) | 31 nM
9 | CC[C@H](C)[C@@H]1NC(=O)[C@H](CCCNC(=N)N)NC(=O)[C@H](CC(N)=O)NC(=O)[C@@H]2CSCCC(=O)N3CN(CN(C3)C(=O)CCSC[C@H](NC(=O)[C@H](Cc3c[nH]c4ccccc34)NC(=O)[C@H](C)NC(=O)[C@H](CCC(N)=O)NC(C)=O)C(=O)N[C@@H](C)C(=O)N3CCC[C@H]3C(=O)N[C@@H](CC(C)C)C(=O)N[C@@H](CO)C(=O)N[C@@H](CC(=O)O)C(=O)N[C@@H](Cc3ccc(O)cc3)C(=O)N[C@@H](Cc3c[nH]c4ccccc34)C(=O)N2)C(=O)CCSC[C@@H](C(N)=O)NC1=O [BCY7623, Ac-QAW-(SEQ ID NO: 34)] (Ac-QAWCAPLSDYWCNRIC-NH2; linker 4-12-16 via TATA; C-terminus assumed) | 21 nM
10 | CC[C@H](C)[C@@H]1NC(=O)[C@H](CCCNC(=N)N)NC(=O)[C@H](CC(N)=O)NC(=O)[C@@H]2CSCCC(=O)N3CN(CN(C3)C(=O)CCSC[C@H](NC(=O)[C@H](C)NC(=O)[C@H](CCCCN)NC(=O)[C@H](CCC(N)=O)NC(C)=O)C(=O)N[C@@H](C)C(=O)N3CCC[C@H]3C(=O)N[C@@H](CC(C)C)C(=O)N[C@@H](CO)C(=O)N[C@@H](CC(=O)O)C(=O)N[C@@H](Cc3ccc(O)cc3)C(=O)N[C@@H](Cc3c[nH]c4ccccc34)C(=O)N2)C(=O)CCSC[C@@H](C(N)=O)NC1=O [BCY7624, Ac-QKA-(SEQ ID NO: 34)] (Ac-QKACAPLSDYWCNRIC-NH2; linker 4-12-16 via TATA; C-terminus assumed) | 571 nM
11 | CC[C@H](C)[C@@H]1NC(=O)[C@H](CCCNC(=N)N)NC(=O)[C@H](CC(N)=O)NC(=O)[C@@H]2CSCCC(=O)N3CN(CN(C3)C(=O)CCSC[C@H](NC(=O)[C@H](Cc3c[nH]c4ccccc34)NC(=O)[C@H](CCCCN)NC(=O)[C@H](CCC(N)=O)NC(C)=O)C(=O)N[C@@H](C)C(=O)N[C@@H](C)C(=O)N[C@@H](CC(C)C)C(=O)N[C@@H](CO)C(=O)N[C@@H](CC(=O)O)C(=O)N[C@@H](Cc3ccc(O)cc3)C(=O)N[C@@H](Cc3c[nH]c4ccccc34)C(=O)N2)C(=O)CCSC[C@@H](C(N)=O)NC1=O [BCY7625, Ac-QKW-(SEQ ID NO: 103)] (Ac-QKWCAALSDYWCNRIC-NH2; linker 4-12-16 via TATA; C-terminus assumed) | 141 nM
